Test results published in article PMC10384010, “Chromatographic Data in Statistical Analysis of BBB Permeability Indices” (Membranes, 2023).

What was measured:
[1] = Normal-phase TLC on silica gel 60 F254 (Rf); format: physicochemical; conditions: water:methanol:acetonitrile 60:20:20, ammonium acetate pH 7.4
Method: (§1) The purity of the isolated substances was checked by TLC chromatography and densitometric scanning.
(§2) APIs were subjected to chromatographic in column (HPLC) and thin layer (TLC) formats. TLC chromatography was carried out on 20 cm × 20 cm glass plates by Merck, covered with silica gel and the addition of a fluorescent indicator. Merck TLC silica gel 60 F254 was used for the normal phase (NP). In the reverse phase (RP), RP-2 silanized plates were used (Merck TLC Silica gel 60 RP-2 F254, silanized). The mobile phase was buffered with ammonium acetate to pH 7.4 (LACH-NER, ammonium acetate).
(§3) Plates, after developing the chromatograms, were scanned using a densitometer (Desaga CD 60) with an analytical wavelength selected individually for drugs. The values of Rf (molecular descriptors: NP, RP) were determined.

[2] = plasma protein binding, given as fraction; ref Drugbank; cited from earlier work
[3] = entering the CNS / not entering the CNS; ref Drugbank [36]; cited from earlier work
[4] = Reversed-phase TLC on RP-2 silanized plates (Rf); format: physicochemical; conditions: silica gel 60 RP-2 F254 silanized; water:methanol:acetonitrile 60:20:20, ammonium acetate pH 7.4
Method: as §1, §2, §3

[5] = HPLC on IAM (immobilized artificial membrane) column, retention factor; format: physicochemical; conditions: IAM.PC.DD.2 column; for k(IAM) retention factor: 10 mM phosphate buffer pH 7.4:acetonitrile 80:20; for logkIAM: logarithm of retention factor, phosphate buffer pH 7.4:acetonitrile 80:20
Method: Chromatographic data also came from an experiment with a HPLC IAM (immobilized artificial membrane) column (Regis Technologies Inc.: IAM.PC.DD.2, 10 µm; 4.6 mm × 10 mm). The column contains a standard membrane consisting of a phospholipid bilayer. Organic solvents (acetonitrile and methanol) and water (J.T. Baker HPLC) were used in HPLC. Sigma phosphate buffered saline tablets were used to prepare the phosphate buffer. The mobile phase was a mixture of 10 mM phosphate buffer at pH 7.4 and acetonitrile in the ratio of 80:20 (v/v) [35]. The mobile phase flow was set at 0.5 mL/min; detection was carried out with a UV–Vis detector. The obtained values of the retention factor (k IAM) were transformed into a logarithmic form and entered into the statistical analysis (descriptor: log k IAM).

CC(=O)Oc1ccccc1C(=O)O [acetylsalicylic acid]
NP (Rf from NP TLC plate) [1]: 0.89
PB (protein binding) [2]: 0.995
CNS+/- [3]: 1
RP (Rf from RP-2 TLC plate) [4]: 0.98
k(IAM) retention factor [5]: 0.03
logkIAM [5]: -1.52

COc1ccc(CCN2CCC(Nc3nc4ccccc4n3Cc3ccc(F)cc3)CC2)cc1 [astemizol]
NP (Rf from NP TLC plate) [1]: 0.62
PB (protein binding) [2]: 0.967
CNS+/- [3]: 1
RP (Rf from RP-2 TLC plate) [4]: 0.65
k(IAM) retention factor [5]: 26.27
logkIAM [5]: 1.42

CC[C@H]1OC(=O)[C@H](C)[C@@H](O[C@H]2C[C@@](C)(OC)[C@@H](O)[C@H](C)O2)[C@H](C)[C@@H](O[C@@H]2O[C@H](C)C[C@H](N(C)C)[C@H]2O)[C@](C)(O)C[C@@H](C)CN(C)[C@H](C)[C@@H](O)[C@]1(C)O [azithromycin]
NP (Rf from NP TLC plate) [1]: 0.63
PB (protein binding) [2]: 0.29
CNS+/- [3]: 0
RP (Rf from RP-2 TLC plate) [4]: 0.24
k(IAM) retention factor [5]: 0.06
logkIAM [5]: -1.20

CC(C)NCC(O)COc1ccc(COCCOC(C)C)cc1 (stereo not shown) [bisoprolol]
NP (Rf from NP TLC plate) [1]: 0.67
PB (protein binding) [2]: 0.3
CNS+/- [3]: 0
RP (Rf from RP-2 TLC plate) [4]: 0.57
k(IAM) retention factor [5]: 6.74
logkIAM [5]: 0.83

O=C1CN=C(c2ccccn2)c2cc(Br)ccc2N1 [bromazepam]
NP (Rf from NP TLC plate) [1]: 0.87
PB (protein binding) [2]: 0.7
CNS+/- [3]: 1
RP (Rf from RP-2 TLC plate) [4]: 0.83
k(IAM) retention factor [5]: 2.21
logkIAM [5]: 0.34

CCCCN1CCCCC1C(=O)Nc1c(C)cccc1C (stereo not shown) [bupivacaine]
NP (Rf from NP TLC plate) [1]: 0.67
PB (protein binding) [2]: 0.95
CNS+/- [3]: 1
RP (Rf from RP-2 TLC plate) [4]: 0.74

COc1ccccc1OCCNCC(O)COc1cccc2[nH]c3ccccc3c12 (stereo not shown) [carvedilol]
NP (Rf from NP TLC plate) [1]: 0.73
PB (protein binding) [2]: 0.98
CNS+/- [3]: 0

CO/N=C(\C(=O)N[C@@H]1C(=O)N2C(C(=O)O)=C(COC(N)=O)CS[C@H]12)c1ccco1 [cefuroxime]
NP (Rf from NP TLC plate) [1]: 0.97
PB (protein binding) [2]: 0.5
CNS+/- [3]: 0
RP (Rf from RP-2 TLC plate) [4]: 0.88
k(IAM) retention factor [5]: 1.69
logkIAM [5]: 0.23

Cc1ccc(-c2cc(C(F)(F)F)nn2-c2ccc(S(N)(=O)=O)cc2)cc1 [celecoxib]
NP (Rf from NP TLC plate) [1]: 0.98
PB (protein binding) [2]: 0.97
CNS+/- [3]: 1
RP (Rf from RP-2 TLC plate) [4]: 0.75
k(IAM) retention factor [5]: 50.01
logkIAM [5]: 1.70

NS(=O)(=O)c1cc(C2(O)NC(=O)c3ccccc32)ccc1Cl (stereo not shown) [chlortalidone]
NP (Rf from NP TLC plate) [1]: 0.96
PB (protein binding) [2]: 0.75
CNS+/- [3]: 1
k(IAM) retention factor [5]: 1.32
logkIAM [5]: 0.12

CN/C(=N/CCSCc1nc[nH]c1C)NC#N [cimetidine]
NP (Rf from NP TLC plate) [1]: 0.64
PB (protein binding) [2]: 0.17
CNS+/- [3]: 0
RP (Rf from RP-2 TLC plate) [4]: 0.88
k(IAM) retention factor [5]: 0.26
logkIAM [5]: -0.58

COc1cc(N)c(Cl)cc1C(=O)NC1CCN(CCCOc2ccc(F)cc2)CC1OC (stereo not shown) [cisapride]
NP (Rf from NP TLC plate) [1]: 0.64
PB (protein binding) [2]: 0.975
CNS+/- [3]: 1
RP (Rf from RP-2 TLC plate) [4]: 0.65
k(IAM) retention factor [5]: 57.99
logkIAM [5]: 1.76

CN1C(=O)CC(=O)N(c2ccccc2)c2cc(Cl)ccc21 [clobazam]
NP (Rf from NP TLC plate) [1]: 0.95
PB (protein binding) [2]: 0.85
CNS+/- [3]: 1
RP (Rf from RP-2 TLC plate) [4]: 0.79
k(IAM) retention factor [5]: 2.58
logkIAM [5]: 0.41

Clc1cccc(Cl)c1N=C1NCCN1 [clonidine]
NP (Rf from NP TLC plate) [1]: 0.49
PB (protein binding) [2]: 0.3
CNS+/- [3]: 1
RP (Rf from RP-2 TLC plate) [4]: 0.73
k(IAM) retention factor [5]: 2.83
logkIAM [5]: 0.45

CN1CCC(=C2c3ccccc3C=Cc3ccccc32)CC1 [cyproheptadine]
NP (Rf from NP TLC plate) [1]: 0.45
PB (protein binding) [2]: 0.975
CNS+/- [3]: 1
RP (Rf from RP-2 TLC plate) [4]: 0.45
k(IAM) retention factor [5]: 23.79
logkIAM [5]: 1.38

C[C@H]1c2cccc(O)c2C(=O)C2=C(O)[C@]3(O)C(=O)C(C(N)=O)=C(O)[C@@H](N(C)C)[C@@H]3[C@@H](O)[C@@H]21 [doxycycline]
NP (Rf from NP TLC plate) [1]: 0.06
PB (protein binding) [2]: 0.9
CNS+/- [3]: 0
RP (Rf from RP-2 TLC plate) [4]: 0.08
k(IAM) retention factor [5]: 1.76
logkIAM [5]: 0.24

CCOC(=O)[C@H](CCc1ccccc1)N[C@@H](C)C(=O)N1CCC[C@H]1C(=O)O [enalapril]
NP (Rf from NP TLC plate) [1]: 0.33
PB (protein binding) [2]: 0.55
CNS+/- [3]: 0
RP (Rf from RP-2 TLC plate) [4]: 0.6
k(IAM) retention factor [5]: 0.05
logkIAM [5]: -1.29

COC(=O)[C@@H]1CC2=CC(=O)CC[C@]2(C)[C@@]23O[C@@H]2C[C@@]2(C)[C@@H](CC[C@@]24CCC(=O)O4)[C@H]13 [eplerenone]
NP (Rf from NP TLC plate) [1]: 0.94
PB (protein binding) [2]: 0.5
CNS+/- [3]: 1
RP (Rf from RP-2 TLC plate) [4]: 0.84
k(IAM) retention factor [5]: 1.54
logkIAM [5]: 0.19

OCCN1CCN(CCC=C2c3ccccc3Sc3ccc(C(F)(F)F)cc32)CC1 [flupenthixol]
NP (Rf from NP TLC plate) [1]: 0.51
PB (protein binding) [2]: 0.95
CNS+/- [3]: 1
RP (Rf from RP-2 TLC plate) [4]: 0.66
k(IAM) retention factor [5]: 51.21
logkIAM [5]: 1.71

Cc1ccc(S(=O)(=O)NC(=O)NN2CC3CCCC3C2)cc1 (stereo not shown) [gliclazide]
NP (Rf from NP TLC plate) [1]: 0.95
PB (protein binding) [2]: 0.94
CNS+/- [3]: 1
RP (Rf from RP-2 TLC plate) [4]: 0.83
k(IAM) retention factor [5]: 0.28
logkIAM [5]: -0.55

OCCOCCN1CCN(C(c2ccccc2)c2ccc(Cl)cc2)CC1 (stereo not shown) [hydroxyzine]
NP (Rf from NP TLC plate) [1]: 0.55
PB (protein binding) [2]: 0.93
CNS+/- [3]: 1
k(IAM) retention factor [5]: 13.82
logkIAM [5]: 1.14

COc1ccc2c(c1)c(CC(=O)O)c(C)n2C(=O)c1ccc(Cl)cc1 [indomethacin]
PB (protein binding) [2]: 0.97
CNS+/- [3]: 1
k(IAM) retention factor [5]: 1.08
logkIAM [5]: 0.03

CCC(C)n1ncn(-c2ccc(N3CCN(c4ccc(OCC5COC(Cn6cncn6)(c6ccc(Cl)cc6Cl)O5)cc4)CC3)cc2)c1=O (stereo not shown) [itraconazole]
NP (Rf from NP TLC plate) [1]: 0.96
PB (protein binding) [2]: 0.998
CNS+/- [3]: 0
RP (Rf from RP-2 TLC plate) [4]: 0.86

O=C(c1ccccc1)c1ccc2n1CCC2C(=O)O (stereo not shown) [ketorolac]
NP (Rf from NP TLC plate) [1]: 0.92
PB (protein binding) [2]: 0.99
CNS+/- [3]: 1
RP (Rf from RP-2 TLC plate) [4]: 0.96

CN1CCC(=C2c3ccccc3CC(=O)c3sccc32)CC1 [ketotifen]
NP (Rf from NP TLC plate) [1]: 0.34
PB (protein binding) [2]: 0.75
CNS+/- [3]: 1
RP (Rf from RP-2 TLC plate) [4]: 0.75
k(IAM) retention factor [5]: 22.04
logkIAM [5]: 1.34

CC[C@@H](C(N)=O)N1CCCC1=O [levetiracetam]
NP (Rf from NP TLC plate) [1]: 0.92
PB (protein binding) [2]: 0.1
CNS+/- [3]: 1
RP (Rf from RP-2 TLC plate) [4]: 0.92

CCC[C@@H]1C[C@@H](C(=O)N[C@@H]([C@H]2O[C@H](SC)[C@H](O)[C@@H](O)[C@H]2O)[C@@H](C)O)N(C)C1 [lincomycin]
NP (Rf from NP TLC plate) [1]: 0.91
PB (protein binding) [2]: 0.7
CNS+/- [3]: 0

O=C1Nc2ccc(Cl)cc2C(c2ccccc2Cl)=NC1O (stereo not shown) [lorazepam]
PB (protein binding) [2]: 0.87
CNS+/- [3]: 1
k(IAM) retention factor [5]: 9.04
logkIAM [5]: 0.96

Nc1ccc(O)c(C(=O)O)c1 [mesalazine]
PB (protein binding) [2]: 0.43
CNS+/- [3]: 0
RP (Rf from RP-2 TLC plate) [4]: 0.99

C[C@](N)(Cc1ccc(O)c(O)c1)C(=O)O [methyldopa]
NP (Rf from NP TLC plate) [1]: 0.38
PB (protein binding) [2]: 0.2
CNS+/- [3]: 0
RP (Rf from RP-2 TLC plate) [4]: 0.85
k(IAM) retention factor [5]: 0.10
logkIAM [5]: -1.02

CCOC(=O)C1=C(C)NC(C)=C(C(=O)OC)C1c1cccc([N+](=O)[O-])c1 (stereo not shown) [nitrendipine]
NP (Rf from NP TLC plate) [1]: 0.97
PB (protein binding) [2]: 0.99
CNS+/- [3]: 0
RP (Rf from RP-2 TLC plate) [4]: 0.86

NC(=O)N1c2ccccc2CC(=O)c2ccccc21 [oxcarbamazepine]
NP (Rf from NP TLC plate) [1]: 0.91
PB (protein binding) [2]: 0.4
CNS+/- [3]: 1
RP (Rf from RP-2 TLC plate) [4]: 0.91

COc1ccnc(C[S+]([O-])c2nc3ccc(OC(F)F)cc3[nH]2)c1OC (stereo not shown) [pantoprazole]
NP (Rf from NP TLC plate) [1]: 0.93
PB (protein binding) [2]: 0.98
CNS+/- [3]: 0
RP (Rf from RP-2 TLC plate) [4]: 0.85
k(IAM) retention factor [5]: 2.19
logkIAM [5]: 0.34

CC(C)NCC(O)c1ccc(NS(C)(=O)=O)cc1 (stereo not shown) [sotalol]
NP (Rf from NP TLC plate) [1]: 0.48
CNS+/- [3]: 1
RP (Rf from RP-2 TLC plate) [4]: 0.85
k(IAM) retention factor [5]: 1.35
logkIAM [5]: 0.13

CCCc1nc2c(C)cc(-c3nc4ccccc4n3C)cc2n1Cc1ccc(-c2ccccc2C(=O)O)cc1 [telmisartan]
NP (Rf from NP TLC plate) [1]: 0.9
CNS+/- [3]: 1
RP (Rf from RP-2 TLC plate) [4]: 0.87
k(IAM) retention factor [5]: 4.68
logkIAM [5]: 0.67

CC(C)(C)NC[C@H](O)COc1nsnc1N1CCOCC1 [timolol]
NP (Rf from NP TLC plate) [1]: 0.34
PB (protein binding) [2]: 0.1
CNS+/- [3]: 0
RP (Rf from RP-2 TLC plate) [4]: 0.97

OCCN1CCN(CC/C=C2/c3ccccc3Sc3ccc(Cl)cc32)CC1 [zuclopenthixol]
NP (Rf from NP TLC plate) [1]: 0.47
PB (protein binding) [2]: 0.985
CNS+/- [3]: 1
k(IAM) retention factor [5]: 48.73
logkIAM [5]: 1.69
